Data published in patent publication US9062002B2, “Substituted pyridine derivatives as FabI inhibitors” (Aurigene Discovery Technologies Limited, priority 2011, dated 2015).
In brackets after ≈: the same amount, converted by molar mass. Where two headings read alike, the source gives them in different places.

Assays:
[1] = system: MSSA; experiment: MIC by broth microdilution method; type: cell-based; conditions: for MIC: Staphylococcus aureus, MRSA / MSSA, read-out: MIC Vs MRSA (μg/ml) MSSA
[2] = system: MRSA; experiment: MIC by broth microdilution method; type: cell-based; conditions: for MIC: Staphylococcus aureus, read-out: MIC Vs MRSA (μg/ml) MRSA
[3] = system: MRSE; experiment: MIC by broth microdilution method; type: cell-based; conditions: for MIC: Staphylococcus epidermidis, MRSA / MRSE, read-out: MIC Vs MRSA (μg/ml) MRSE
[4] = Metabolic stability study in mouse liver microsomes; type: in vitro ADME; conditions: 1 μM, 37° C.
Description: The above selected compounds have protected mice from infection at ED50 doses. Metabolic Stability Study: In vitro metabolic stability of the compounds was done in mouse liver microsomes prepared in house as per standard protocol. Compounds were tested at 1 μM concentration. Compounds were incubated for 15 and 60 minutes at 37° C. with 100 rpm in shaker bath. After the incubation samples were analysed by LC/MS (API-4000). Respective control (Propranalol) was included in the study.

[5] = system: Fab I; conditions: 1 μM compound

Compound | MIC ([1]; MSSA, broth microdilution) [µg/mL] | MIC ([2]; MRSA, broth microdilution) [µg/mL] | MIC ([3]; MRSE, broth microdilution) [µg/mL] | Percentage of compound remained after 15 min [4] [%] | Percentage of compound remained after 60 min [4] [%] | FAB-I inhibition %@1 μM [5] [%] | MIC Vs MRSA (μg/ml) MSSA ([1]; MSSA, broth microdilution) [µg/mL] | MIC Vs MRSA (μg/ml) MRSA ([2]; MRSA, broth microdilution) [µg/mL] | MIC Vs MRSA (μg/ml) MRSE ([3]; MRSE, broth microdilution) [µg/mL] | MIC Vs MRSA (μg/ml) MSSA [1] [µg/mL] | MIC Vs MRSA (μg/ml) MRSA [2] [µg/mL] | MIC Vs MRSA (μg/ml) MRSE [3] [µg/mL]
O=C1CCc2cc(/C=C/C(=O)N3CC=C(c4ccccc4)CC3)cnc2N1 [Compound 2, (E)-6-(3-oxo-3-(4-phenyl-5,6-dihydropyridin-1(2H)-yl)prop-1-en-1-yl)-3,4-dihydro-1,8-naphthyridin-2(1H)-one] | 0.5 (≈ 1.39 µM) | 0.5 (≈ 1.39 µM) | 4 (≈ 11.1 µM) | 99.7 | 97.9 | 86 |  |  |  |  |  | 
O=C1CCc2cc(/C=C/C(=O)N3CC=C(c4ccc(F)cc4)CC3)cnc2N1 [Compound 8] |  |  |  |  |  | 108 | 2 (≈ 5.3 µM) | 2 (≈ 5.3 µM) | 8 (≈ 21.2 µM) |  |  | 
Cc1cnc(CC2=CCN(C(=O)/C=C/c3cnc4c(c3)CCC(=O)N4)CC2)s1 [Compound 57] |  |  |  | 86.8 | 57.1 |  |  |  |  |  |  | 
O=C1CCc2cc(/C=C/C(=O)N3CC=C(Cc4ccccc4)CC3)cnc2N1 [Compound 62] |  |  |  | 78.5 | 54.2 | 76 |  |  |  | 0.25 (≈ 0.669 µM) | 0.5 (≈ 1.34 µM) | 0.5 (≈ 1.34 µM)
O=C1CCc2cc(/C=C/C(=O)N3CC=C(Cc4cccc(F)c4)CC3)cnc2N1 [Compound 65] |  |  |  | 90.6 | 75.0 | 90 |  |  |  | 0.25 (≈ 0.639 µM) | 0.25 (≈ 0.639 µM) | 0.5 (≈ 1.28 µM)
O=C1CCc2cc(/C=C/C(=O)N3CC=C(Cc4ccccc4F)CC3)cnc2N1 [Compound 66] |  |  |  |  |  | 84 |  |  |  | 0.25 (≈ 0.639 µM) | 0.25 (≈ 0.639 µM) | 0.25 (≈ 0.639 µM)
O=C1CCc2cc(/C=C/C(=O)N3CC=C(Cc4cccc(Cl)c4)CC3)cnc2N1 [Compound 67] |  |  |  |  |  | 63 | 2 (≈ 4.9 µM) | 1 (≈ 2.45 µM) | 2 (≈ 4.9 µM) |  |  | 
Cc1ccc(CC2=CCN(C(=O)/C=C/c3cnc4c(c3)CCC(=O)N4)CC2)cc1 [Compound 70] |  |  |  |  |  | 63.47 |  |  |  | 1 (≈ 2.58 µM) | 1 (≈ 2.58 µM) | 2 (≈ 5.16 µM)
O=C1CCc2cc(/C=C/C(=O)N3CC=C(Cc4cccs4)CC3)cnc2N1 [Compound 84] |  |  |  |  |  | 100 |  |  |  | 0.125 (≈ 0.329 µM) | 0.25 (≈ 0.659 µM) | 0.25 (≈ 0.659 µM)
O=C1CCc2cc(/C=C/C(=O)N3CC=C(Cc4sccc4Cl)CC3)cnc2N1 [Compound 87] |  |  |  |  |  | 69.05 |  |  |  | 0.5 (≈ 1.21 µM) | 0.5 (≈ 1.21 µM) | 0.5 (≈ 1.21 µM)
CC(=O)Nc1ccc(/C=C/C(=O)N2CC=C(Cc3cccs3)CC2)cn1 [Compound 88, (E)-N-(5-(3-oxo-3-(4-(thiophen-2-ylmethyl)-5,6-dihydropyridin-1(2H)-yl)prop-1-en-1-yl)pyridin-2-yl)acetamide] | > 128 | > 128 | > 128 | 11.1 | 5.5 | 87 |  |  |  |  |  | 
O=C(/C=C/c1cnc2c(c1)CN(CCN1CCOCC1)C(=O)N2)N1CC=C(Cc2cccs2)CC1 [Compound 90, (E)-3-(2-morpholinoethyl)-6-(3-oxo-3-(4-(thiophen-2-ylmethyl)-5,6-dihydropyridin-1(2H)-yl)prop-1-en-1-yl)-3,4-dihydro pyrido[2,3-d]pyrimidin-2(1H)-one] | > 128 | > 128 | > 128 | 32.4 | 22.9 | 89 |  |  |  |  |  | 
O=C1CNCc2cc(/C=C/C(=O)N3CC=C(Cc4cccs4)CC3)cnc2N1 [Compound 92, (E)-7-(3-oxo-3-(4-(thiophen-2-ylmethyl)-5,6-dihydropyridin-1(2H)-yl)prop-1-en-1-yl)-4,5-dihydro-1H-pyrido[2,3-e][1,4]diazepin-2(3H)-one] | 0.12 (≈ 0.304 µM) | 0.25 (≈ 0.634 µM) | 0.25 (≈ 0.634 µM) |  |  |  |  |  |  |  |  | 
